Results: patent publication US7557085B2, “Metabolic-based methods for modulating gene expression” (Wisconsin Alumni Research Foundation, priority 2005, dated 2009)

How the values were obtained:
[1] = system: seizures evoked by kindling; experiment: kindling model of epilepsy, afterdischarge (AD) threshold; format: in vivo, Sprague Dawley rats; parameters: change of AD threshold / duration of anticonvulsant effects after stopping 2-DG: dose or concentration left out as unconfirmed
Experimental: FIG. 2 illustrates the effects on after-discharge threshold of 2-DG in a […] model of epilepsy.
2-deoxy-D-glucose (2-DG), a potent inhibitor of glycolysis, was administered to rats experiencing epileptic seizures evoked by kindling, which induces seizures and long-term alterations in pathways of the hippocampal formation resembling human temporal lobe epilepsy. The effects of 2-DG on seizures evoked by kindling were examined in Sprague Dawley rats that received 2-DG and were compared to a saline-injected control group. Both groups initially received twice daily kindling stimulation (1 sec trains of 1 ms bipolar constant current pulses at 60 Hz) delivered to the perforant path input to the hippocampus according to established procedures, until 3 afterdischarges (ADs) accompanied by behavioral seizures were evoked. […]
Dosage amount and interval of administration of compounds of the present invention can be adjusted individually to reduce seizure frequency, duration or intensity. For example, doses of 250 mg/kg 2-DG or less to higher as tolerated can be used to reduce seizure frequency and minimize toxicity. Doses of as much as 2000 mg/kg 2-DG are well tolerated in rats. […] A practitioner skilled in the art can adjust dosage in the range up to 500-600 mg/kg 2-DG and the timing of administration to produce prolonged anticonvulsant and antiepileptic effects. Efficacious dosage amounts can be adjusted to about 14 mg/kg 2-DG in children and 40 mg/kg 2-DG in adults, using therapeutic efficacy measurements (e.g., reduction in frequency or severity of seizures) as a criterion for establishing effective dosage levels.

BDNF = experiment: QRT-PCR of hippocampal tissue from kindled rats, BDNF; format: in vivo, rat
Source text: Values plotted are BDNF or TrkB expression over Actin using rat hippocampal cDNA from an untreated rat for a standard curve. Specifically, mRNA was extracted from hippocampus tissue from rats treated with 2-DG or untreated control rats subjected to kindling stimulation to mimic epilepsy. […] The levels of actin mRNA were not affected by 2-DG treatment. Importantly, the differences in expression of BDNF or TrkB in the absence or presence of 2DG were present after 5 ADs in association with a large difference in AD threshold between 2DG-treated and control rats (FIG. 3 lanes 5 versus 6 and 7 versus 8).

NRSF mediated repression = experiment: gal4-NRSF luciferase reporter (G5-TATA-Luc) in JTC-19 cells; format: cell-based, rat; settings: JTC-19 cells
CHRM4 = experiment: ChIP in JTC-19 cells grown with 2-DG or glucose, CHRM4; format: cell-based, rat
Source text: (§1) To determine whether 2-DG mediated suppression of BDNF levels was associated with a decreased level of histone H3 Lysine^9 acetylation, hippocampii from 2-DG treated or control rats were crosslinked with 1% formaldehyde and subjected to chromatin immunoprecipitation assays (ChIPs), performed as in Roopra et al.(2004, Mol Cell 14: 727-38) with an antibody specific to acetylated H3-K9. The graphs shown in FIGS. 10A through 10C show the results of experiments in which the amount (in ng) of DNA associated with nucleosomes comprising modified or unmodified H3 histone proteins was detected for an endogenous, NRSE/NRSF-regulated gene (CHRM4) in JTC-19 cells grown in the presence of 2-DG or glucose. […] However, the amount of CtBP recruited to CHRM4, the NRSF target gene, increased 5-fold in the presence of 2-DG.

BDNF NRSE = experiment: ChIP on hippocampi of rats administered 2-DG or saline, BDNF NRSE; format: in vivo, rat
Source text: FIG. 10D is a graph showing the results of CHiP assays of ˜20 kB surrounding the NRSE element in the BDNF gene. The data is plotted as the quantity of DNA specifically precipitated (pg).
FIG. 10E is a graph showing the results of CHiP assays wherein chromatin precipitated with anti-H3K9-dimethyl or sham antibody and primers flanking the BDNF NRSE. The data is plotted as the quantity of DNA specifically precipitated (pg).
FIG. 10F is a graph showing the results of CHiP assays wherein chromatin was precipitated with anti-NRSF or sham antibody and primers flanking the BDNF or actin promoter. The data is plotted as the quantity of DNA specifically precipitated (pg).
FIG. 10I is a graph of CHIP assays performed on hippocampi from rats administered 2-DG or saline for 2 weeks and using a cocktail of anti-CtBP1 and anti-CtBP2 antibody or sham antibody and primers flanking the BDNF NRSE or actin promoter. Data is plotted as quantity of DNA specifically precipitated in picograms.
as §1
ChIP assays also were performed over 20 Kb spanning the BDNF NRSE to detect deacetylated histone H3K9. In these experiments, hippocampi from rats administered 2-DG or saline for 2 weeks were subjected to CHIP with anti-H3K9-acetyl (obtained from BD-Pharmigen) or sham antibody and primers flanking BDNF NRSE or sequence 2, 5 or 10 Kb up- or downstream from the BDNF NRSE element.
Alternatively, when chromatin from the above experiments was precipitated with anti-NRSF or sham antibody and primers flanking the BDNF NRSE or actin promoter, specific binding was found at the NSRE element and not associated with the actin promoter.
The above results predicted that CtBP would be present at the BDNF NRSF binding site in rat hippocampi and that occupancy at this site should be augmented in the presence of 2-DG. To test this prediction, ChIP assays were performed using anti-CtBP antibody on chromatin isolated from 2DG-treated rats as above. Hippocampi from rats administered 2-DG or saline for 2 weeks were subjected to ChIP with a cocktail of anti-CtBP1 and anti-CtBP2 antibody or sham antibody and primers flanking the BDNF NRSE or actin promoter. […] CtBP was not detected at the actin promoter without regard to the glycolytic state of the animal, as expected for a gene not under NRSF regulatory control.

O=CC[C@@H](O)[C@H](O)[C@H](O)CO [2-DG, 2-deoxy-D-glucose]
AD threshold reached with repeated stimulations ([1]; rats, 2-DG 200 mg/kg subcutaneously 30 minutes prior to each kindling stimulation, maximum intensity of the stimulation protocol): 1500 μramps
change of AD threshold ([1]; subcutaneous prior to each kindling stimulation that evoked AD, saline control showed a decrease): gradual increase
duration of anticonvulsant effects after stopping 2-DG ([1]; twice daily for 3 months, twice daily stimulation continued): approximately 8 weeks
hippocampal BDNF expression compared to control animals (BDNF; QRT-PCR, expression over actin, FIG. 3 lanes 1 versus 2): significantly reduced
difference in expression of BDNF in absence or presence of 2DG (BDNF; after 5 ADs): present
BDNF expression, 2DG-treated versus control rats (BDNF; rats that experienced 3 Class V seizures): no difference in expression
repression by NRSF of luciferase reporter (NRSF mediated repression; 2-DG added to pyruvate and glucose): augmented this effect
repression of luciferase reporter gene expression by NRSF (fold repression gal4 DBD/gal4-NRSF) (NRSF mediated repression; 16 hrs): increased repression
repression by NRSF of luciferase reporter (NRSF mediated repression; in the absence of glucose): unable to further augment repression
repression by NRSF of luciferase reporter (NRSF mediated repression; in the presence of glucose): increased repression
H3-Lys9 acetylation levels at the CHRM4 promoter (CHRM4; in the presence of 2-DG): reduced
amount of mono- and di-methyl K9 (CHRM4; in the presence of 2-DG): increased
amount of unmodified (de-acetylated) H3K9 (CHRM4; in the presence of 2-DG): increased
increase of amount of CtBP recruited to CHRM4 (CHRM4; in the presence of 2-DG): 5 fold
amount of NRSF, G9a and SIN3 at NRSF target genes (CHRM4; presence or absence of 2-DG): does not change
H3K9 methylation status at the BDNF NRSE (BDNF NRSE; anti-H3K9-dimethyl antibody, rat hippocampi): robust increase
NRSF binding to the BDNF NRSE (BDNF NRSE; anti-NRSF antibody, rat hippocampi): not affected
associated histone acetylation levels for BDNF DNA (BDNF NRSE; drug treatment, rat hippocampus): lowered
CtBP occupancy at the BDNF NRSE (BDNF NRSE; rats administered 2-DG or saline for 2 weeks, anti-CtBP1 and anti-CtBP2 cocktail): significantly increased
H3K9 acetylation at the NRSE element compared to controls (BDNF NRSE; rats administered 2-DG or saline for 2 weeks, only amplicon over 20 Kb to change): marked reduction
